Experiments:
[1] = system: normal, healthy volunteers; assay: clinical trial of subjective mood enhancement after ingestion of the prepared beverage, eight test groups; assay type: in vivo, human; conditions: for duration of effect: following ingestion of the prepared beverage; for Score, subjective feeling of mood enhancement: scale of 0 (no change) to 10 (euphoric), N=10 per group, oral solution in 125 mL juice, 10 day period; for mood effect as described: subjective report in words
Method: A set of clinical trials were performed using the median dosing of a ‘typical formulation’ in randomly selected normal, healthy volunteers ranging from 14 to 80 years (mean age 44.5 years) greater than 50 kg body weight over a 10 day period. At the end of the clinical trial, subjects were asked to subjectively rate the feeling of mood enhancement, ranging from a scale of 0 (no change) to 10 (euphoric) and to rate the duration of effect (in hours) following ingestion of the prepared beverage. Members also were encouraged to report any side effects, if any.
Eight different test groups of ten human subjects each (N=10) were devised as follows:
Test Group 1: Oral solution containing 125 mL juice (7% carbohydrate), 3 times daily. This formulation represents placebo.
(§1) Test Group 2: L-Phenylalanine, 800 mg and mucina pruriens, 15% L-DOPA, 200 mg oral solution in 125 mL juice (containing 7% carbohydrate), 3 times daily. This nootropic formulation affects the following neurotransmitter systems: dopamine agonist, a stimulant. The type number ratio is 2:0:0:0:0 to produce a ΔN=+2. This agent fails the test for producing predictable mood enhancement because it is has an imbalanced type number ratio, resulting in a net stimulatory effect (ΔN=+2), and producing a predictable mood over stimulation.
as §1, with “3: Phenylethylamine hydrochloride, 400” for “2: L-Phenylalanine, 800 mg and mucina pruriens, 15% L-DOPA, 200”, “single dose.” for “3 times daily.”, “1:0:0:0:0” for “2:0:0:0:0”, “ΔN=+1.” for “ΔN=+2.”, “(ΔN=+1),” for “(ΔN=+2),”
(§2) Test Group 4: Dimethylaminoethanol bitartrate, 300 mg oral solution in 125 mL juice (containing 7% carbohydrate), 3 times daily. This nootropic formulation affects the following neurotransmitter systems: acetylcholine agonist, an inhibitor. The type number ratio is 0:1:0:0:0 to produce a ΔN=−1. This agent fails the test for producing predictable mood enhancement because it is has an imbalanced type number ratio, resulting in a net inhibitory effect (ΔN=−1), and producing a predictable mood suppression.
as §2, with “5: S-Adenosyl-methionine tosylate disulfate,” for “4: Dimethylaminoethanol bitartrate,”, “serotonin” for “acetylcholine”, “0:0:1:0:0” for “0:1:0:0:0”
as §1, with “6: Anhydrous caffeine, 80” for “2: L-Phenylalanine, 800 mg and mucina pruriens, 15% L-DOPA, 200”, “adenosine antagonist,” for “dopamine agonist,”, “0:0:0:0:1” for “2:0:0:0:0”, “ΔN=+1.” for “ΔN=+2.”, “(ΔN=+1),” for “(ΔN=+2),”
as §2, with “7: L-Theanine, 200” for “4: Dimethylaminoethanol bitartrate, 300”, “GABA” for “acetylcholine”, “0:0:0:1:0” for “0:1:0:0:0”, “suppression. […]” for “suppression.”

[2] = doses as low as; cited from earlier work

Row | Molecule | side effects reported ([1]; 10 subjects per group) | duration of effect [1] | Score, subjective feeling of mood enhancement [1] | mood effect as described [1] | mood effect as described ([1]; listed as S-adenosyl-methionine tosylate disulfate) | mood effect as described ([1]; hydrochloride) | mood effect as described ([1]; listed as Phenylethyamine hydrochloride, hydrochloride) | dose producing hallucinogenic and entheogenic effects [2] [µg] | side effects reported ([1]; human, in vivo)
1 | S-Adenosyl-methionine tosylate disulfate [Test Group 5] | No side effects reported | 3 h | 6.0 | better mood | moderate mood enhancement | – | – | – | –
2 | Cl.NCCc1ccccc1 [Test Group 3, Phenylethylamine hydrochloride] | flushing in 4 of 10 subjects | less than 30 minutes | 7.5 | – | – | temporary euphoric feeling | noticeable but short-term effect | – | –
3 | Dimethylaminoethanol bitartrate [Test Group 4] | headache in 1 of 10 subjects | less than 1 hours | 2.0 | mild effect | – | – | – | – | –
4 | CCN(CC)C(=O)[C@@H]1C=C2c3cccc4[nH]cc(c34)C[C@H]2N(C)C1 [LSD] | – | – | – | – | – | – | – | 30 to 40 | –
5 | CCNC(=O)CC[C@H](N)C(=O)O [Test Group 7, L-Theanine] | – | 3 h | 6.5 | very calm, sedative-like effect | – | – | – | – | No side effects reported
6 | Cn1c(=O)c2c(ncn2C)n(C)c1=O [Test Group 6, Anhydrous caffeine] | No side effects reported | 2 h | 3.0 | felt alert | – | – | – | – | –
